{"source": "patent US20070254907A1", "about": "“COMPOSITIONS AND METHODS FOR CONTROLLING INFESTATION” (HATCHTECH PTY LTD, priority 2003, published 2007)", "key": {"body louse eggs": {"system": "body louse eggs", "assay": "Standard body louse egg assay with formulated compound", "assay_type": "in vivo, body lice", "details": "10 minute exposure; for % of eggs that hatched following treatment: formulated", "procedure": "5,5′-dimethyl-2,2′-dipyridyl was formulated and evaluated in the standard body louse egg assay. Body louse eggs (15-30 per replicate) of varying ages were exposed for 10 minute to the test solutions or a placebo or left untreated, followed by a 1 minute water wash and blotted dry. The eggs were then incubated at 30° C. over the following 10 days post treatment and the percentage of eggs that successfully hatched was determined (Table 20)."}, "H. contortus eggs": {"system": "H. contortus eggs", "assay": "Egg hatching in Haemonchus contortus", "assay_type": "in vivo", "procedure": "In an attempt to improve control of H. contortus the effects of the compound 5,5′-dimethyl-2,2′-dipyridyl was examined on H. contortus eggs. Eggs were recovered from the faeces of infected sheep using a standard sucrose floatation method. The eggs were corrected to a density of approximately 2,500 eggs per mL and were then exposed to varying concentrations of compound and incubated for 48 hours at 25° C. The eggs were then examined to determine the ovicidal efficacy of the compound in comparison to untreated control and a solvent only control.\nIn addition, the ovicidal efficacy of the compound 2-acetyl-1-tetralone was examined against H. contortus (FIG. 10). The same protocol was used as described for 5,5′-dimethyl-2,2′-dipyridyl."}, "[1]": {"system": "house dust mite Dermatophagoides spp", "assay": "House dust mite counts on treated filter paper", "assay_type": "in vivo", "details": "over the 2 week period, 25° C., 75% RH", "procedure": "A filter paper (90 mm diameter) was taken and placed in a Petri dish of the same dimensions. The filter paper was then wetted throughout with the test compound, using a small air pump sprayer. The wetted filter paper was then allowed to dry in free flowing air. 200 mg dust mite medium, containing roughly 500 mites/g, was placed on the filter paper and the number of mites counted under a microscope. The arena was then left for 2 weeks on an incubator at 25° C. and 75% RH. After 2 weeks the number of mites in the arena was counted for a second time. This experiment was repeated 3 times with the test compound and a further 3 times using water as a control."}, "head lice eggs": {"system": "head lice eggs", "assay": "Head lice egg hatching with formulated compound", "assay_type": "in vivo", "details": "20 mM formulation", "procedure": "Gravid female lice were permitted to lay eggs. The eggs were counted, inspected under a light microscope and all eggs that appeared undamaged were allocated to one of two treatment groups. One group was exposed to 5′-dimethyl-2,2′-dipyridyl in a formulation, while the second group was exposed to the formulation only. The protocol was as follows:\nTreatments: 5'-dimethyl-2,2'dipyridyl (20mM) n=10\nVehicle control only n=10\nExposure time: 10 minutes\nWash time: 1 minute @˜37° C.\nIncubation: All eggs were placed at 31° C. in a humid incubator and monitored for signs of development specifically of the eye and subsequent hatching, see Table 21."}, "[2]": {"system": "Lice (L) and Plutella (P) eggs", "assay": "whole plant or invertebrate", "details": "read-out: Ovicidal activity %"}, "lice eggs": {"system": "lice eggs", "assay": "Standard lice egg-hatching assay, commercial head lice products with rinse", "assay_type": "in vivo", "details": "for H (number of eggs successfully hatched) / Ph (number of eggs partly hatched): per replicate, products per manufacturer's recommendations, 1,10-phenanthroline 10 mM, rinsed", "procedure": "(§1) These three products were tested according to manufacturer's recommendations. Groups of eggs (24 hours old) were treated with the different products according to manufacturer's recommendations for the appropriate period of time (5-10 minutes) followed by a rinse for 1-2 minutes in 32° C. water. A positive controls (10 mM 1,10-phenanthroline) and two negative controls (no treatment and 20% Methanol) were also incorporated. Post exposure to the different products, the eggs were rinsed with warm water at 32° C. before being blotted dry on tissue paper and placed at 32° C., 70% RH and left to hatch. A second group of eggs, (48 hours old) were treated as previously described and also left to hatch. This process was repeated at 24 hour intervals on head lice eggs up to 120 hours post laying. This method of assaying inhibitors more closely mirrors the field situation where lice eggs will be at various stages of development on the head and permits the inhibitory effects to be observed on these different stages of the parasite.\nas §1, with “two” for “three”, “Two” for “A positive controls (10 mM 1,10-phenanthroline) and two”, “ethanol)” for “Methanol)”, “were” for “were rinsed with warm water at 32° C. before being”"}}, "note": "Values joined by “and” are separate entries in the source; they are usually repeats but may differ in a detail not shown here. Identical values can stand only once."}
{"smiles": "Cc1ccc(-c2ccc(C)cn2)nc1", "note": "[5,5′-dimethyl-2,2′-dipyridyl]", "values": [{"measurement": "ovicidal activity of formulated compound on body louse eggs", "setting": "body louse eggs; 1 minute water wash", "result": "strong dose dependency of ovicidal activity"}, {"measurement": "% of eggs that hatched following treatment", "setting": "body louse eggs; 1 mM, age of eggs 24 hr", "result": 91, "unit": "%"}, {"measurement": "% of eggs that hatched following treatment", "setting": "body louse eggs; 1 mM, age of eggs 48 hr", "result": 80, "unit": "%"}, {"measurement": "% of eggs that hatched following treatment", "setting": "body louse eggs; 1 mM, age of eggs 96 hr", "result": 82, "unit": "%"}, {"measurement": "% of eggs that hatched following treatment", "setting": "body louse eggs; 1 mM, age of eggs 120 hr", "result": 86, "unit": "%"}, {"measurement": "% of eggs that hatched following treatment", "setting": "body louse eggs; 5 mM, age of eggs 24 hr", "result": 21, "unit": "%"}, {"measurement": "% of eggs that hatched following treatment", "setting": "body louse eggs; 5 mM, age of eggs 48 hr", "result": 58, "unit": "%"}, {"measurement": "% of eggs that hatched following treatment", "setting": "body louse eggs; 5 mM, age of eggs 96 hr", "result": 64, "unit": "%"}, {"measurement": "% of eggs that hatched following treatment", "setting": "body louse eggs; 5 mM, age of eggs 120 hr", "result": 65, "unit": "%"}, {"measurement": "% of eggs that hatched following treatment", "setting": "body louse eggs; 10 mM, age of eggs 24 hr", "result": 4, "unit": "%"}, {"measurement": "% of eggs that hatched following treatment", "setting": "body louse eggs; 10 mM, age of eggs 48 hr", "result": 7, "unit": "%"}, {"measurement": "% of eggs that hatched following treatment", "setting": "body louse eggs; 10 mM, age of eggs 96 hr", "result": 10, "unit": "%"}, {"measurement": "% of eggs that hatched following treatment", "setting": "body louse eggs; 10 mM, age of eggs 120 hr", "result": 12, "unit": "%"}, {"measurement": "% of eggs that hatched following treatment", "setting": "body louse eggs; 30 mM, age of eggs 24 hr", "result": 0, "unit": "%"}, {"measurement": "% of eggs that hatched following treatment", "setting": "body louse eggs; 30 mM, age of eggs 48 hr", "result": 0, "unit": "%"}, {"measurement": "% of eggs that hatched following treatment", "setting": "body louse eggs; 30 mM, age of eggs 96 hr", "result": 0, "unit": "%"}, {"measurement": "% of eggs that hatched following treatment", "setting": "body louse eggs; 30 mM, age of eggs 120 hr", "result": 0, "unit": "%"}, {"measurement": "ovicidal efficacy on H. contortus eggs", "setting": "H. contortus eggs; 180 and 18 ug/mL (1 and 0.1 mM), 48 hours at 25° C. (FIG. 8)", "result": "potently ovicidal"}, {"measurement": "effectiveness at inhibiting H. contortus egg hatching compared to ivermectin", "setting": "H. contortus eggs; FIG. 8 versus FIG. 9", "result": "~10", "unit": "×"}, {"measurement": "mite populations on the treated filter papers", "setting": "[1]", "result": "small decline"}, {"measurement": "egg hatching in head lice", "setting": "head lice eggs; 10 minutes, 1 minute wash", "result": "significantly suppress egg hatching"}, {"measurement": "eggs that failed to hatch (did not develop)", "setting": "head lice eggs; n=10 eggs", "result": 80, "unit": "%"}]}
{"smiles": "c1cnc2c(c1)ccc1cccnc12", "note": "[1,10-phenanthroline, reference compound]", "values": [{"measurement": "inhibition at 10000 µM", "setting": "[2]", "result": 100, "unit": "%"}, {"measurement": "ovicidal activity across the different stages of lice egg hatching", "setting": "lice eggs; 24-120 hr post egg laying", "result": "highly effective at inhibiting lice egg hatching"}, {"measurement": "H (number of eggs successfully hatched)", "setting": "lice eggs; treated 24 hr post egg laying", "result": 0}, {"measurement": "Ph (number of eggs partly hatched)", "setting": "lice eggs; treated 24 hr post egg laying", "result": 0}, {"measurement": "H (number of eggs successfully hatched)", "setting": "lice eggs; treated 48 hr post egg laying", "result": 0}, {"measurement": "Ph (number of eggs partly hatched)", "setting": "lice eggs; treated 48 hr post egg laying", "result": 0}, {"measurement": "H (number of eggs successfully hatched)", "setting": "lice eggs; treated 72 hr post egg laying", "result": 0}, {"measurement": "Ph (number of eggs partly hatched)", "setting": "lice eggs; treated 72 hr post egg laying", "result": 0}, {"measurement": "H (number of eggs successfully hatched)", "setting": "lice eggs; treated 96 hr post egg laying", "result": 0}, {"measurement": "Ph (number of eggs partly hatched)", "setting": "lice eggs; treated 96 hr post egg laying", "result": 0}, {"measurement": "H (number of eggs successfully hatched)", "setting": "lice eggs; treated 120 hr post egg laying", "result": "0 and 4 and 1"}, {"measurement": "Ph (number of eggs partly hatched)", "setting": "lice eggs; treated 120 hr post egg laying", "result": 0}]}
